According to patent US20260086093A1, “METHODS TO DETERMINE DRUG TARGET RESIDENCE TIME AND TO SELECT BEST DRUG-TARGET CANDIDATES” (BiognoSYS AG, priority 2022, published 2026):

How the values were obtained:
Kynureninase (KYNU) = target: T1, Kynureninase (KYNU) (Homo sapiens, UniProt Q16719); assay: Jump-dilution LiP-MS, Calyculin A on non-target KYNU; type: binding; settings: entire length of the experiment after 100-fold jump-dilution; FIG. 8
T1 construct: endogenous in cells; host or cells: native cellular proteome
T1 sequence (Q16719 1-465): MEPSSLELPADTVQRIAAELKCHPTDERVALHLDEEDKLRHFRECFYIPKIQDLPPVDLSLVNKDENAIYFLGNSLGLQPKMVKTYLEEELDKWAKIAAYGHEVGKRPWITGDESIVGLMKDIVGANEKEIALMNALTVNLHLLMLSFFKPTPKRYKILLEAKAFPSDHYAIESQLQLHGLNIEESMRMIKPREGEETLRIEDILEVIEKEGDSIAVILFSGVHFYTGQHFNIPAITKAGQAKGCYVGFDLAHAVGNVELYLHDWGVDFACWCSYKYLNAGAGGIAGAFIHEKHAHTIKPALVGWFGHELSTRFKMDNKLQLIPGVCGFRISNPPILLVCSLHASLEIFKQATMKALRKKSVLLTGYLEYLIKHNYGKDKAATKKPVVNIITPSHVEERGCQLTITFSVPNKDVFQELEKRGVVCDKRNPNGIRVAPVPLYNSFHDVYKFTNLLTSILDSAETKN
Description: (§1) Native proteomes were incubated with the ligand of interested (Staurosporine or Calyculin A)—lower panel—or with the solvent (DMSO)—upper panel. The sample treated with DMSO serves as negative control, and it is used to confirm that the observed effect is derived from the interaction of the Ligand with its Targets. The proteomes were then diluted by a factor of 100 (jump-dilution method), and aliquots with a sample of the ligand-bound proteome were extracted at distinct time points after dilution. Due to the reduction of the concentration of the Ligand in solution (as consequence to the jump-dilution), new binding events between Ligand and Target are very unlikely, and consequently it is expected that the proportion of Ligand-bound protein Target decreases over time, as the complex Ligand-Target dissociates. The samples incubated for the distinct times were then subjected to a limited proteolysis step using LiP-MS or DarkLiP-MS, and measured by mass spectrometry. In the right intensity (I) as a function of retention time (RT is given.
(§2) For both LiP-MS and DarkLiP-MS, the limited proteolysis is performed with the unspecific protease thermolysin. After incubation for a short amount of time, the reaction is stopped by addition of EDTA.
For processing of LiP-MS experiments (1), the samples are dried after stopping the reaction. […]

[1] = target: T2, phoshatase PP2A-alpha (PPP2CA) (Homo sapiens, UniProt P67775); assay: Jump-dilution LiP-MS residence-time pattern, Calyculin A on PPP2CA; type: binding; settings: 0 to 60 minutes after 100-fold jump-dilution; FIG. 7
T2 construct: endogenous in cells; host or cells: native cellular proteome
Description: Native proteomes were incubated with the ligand of interested (Staurosporine or Calyculin A)—lower panel—or with the solvent (DMSO)—upper panel. The sample treated with DMSO serves as negative control, and it is used to confirm that the observed effect is derived from the interaction of the Ligand with its Targets. The proteomes were then diluted by a factor of 100 (jump-dilution method), and aliquots with a sample of the ligand-bound proteome were extracted at distinct time points after dilution. […] The samples incubated for the distinct times were then subjected to a limited proteolysis step using LiP-MS or DarkLiP-MS, and measured by mass spectrometry. […]
Calyculin A is a natural compound that acts as an potent and irreversible inhibitor of serine/threonine protein phosphatases. To show the application of the LiP-MS technology for the measurement of irreversible drug-residence times, the experimental workflow described in FIGS. 3, 4 and 5 was applied to the phosphatase inhibitor Calyculin A. Native cellular proteomes were treated with Calyculin A or DMSO (vehicle) in duplicates, diluted 100 fold and analyzed by LiP-MS. […]

[2] = test system: CDK1, CDK2, CDK4, CDK6, CDK7 and CDK9; settings: towards CDK1, CDK2, CDK4, CDK6, CDK7 and CDK9; cited from earlier work
[3] = target: T3, Dual specificity mitogen-activated protein kinase kinase 3 (MP2K3) (Homo sapiens, UniProt P46734); assay: Jump-dilution LiP-MS residence time, complex MP2K3-Staurosporine; type: binding; settings: for Half-life: time to 50% decrease of relative peptide abundance, 4-parameter logistic fit, 100-fold jump dilution, native cellular proteome
T3 construct: endogenous in cells; host or cells: native cellular proteome
T3 sequence (P46734 1-347): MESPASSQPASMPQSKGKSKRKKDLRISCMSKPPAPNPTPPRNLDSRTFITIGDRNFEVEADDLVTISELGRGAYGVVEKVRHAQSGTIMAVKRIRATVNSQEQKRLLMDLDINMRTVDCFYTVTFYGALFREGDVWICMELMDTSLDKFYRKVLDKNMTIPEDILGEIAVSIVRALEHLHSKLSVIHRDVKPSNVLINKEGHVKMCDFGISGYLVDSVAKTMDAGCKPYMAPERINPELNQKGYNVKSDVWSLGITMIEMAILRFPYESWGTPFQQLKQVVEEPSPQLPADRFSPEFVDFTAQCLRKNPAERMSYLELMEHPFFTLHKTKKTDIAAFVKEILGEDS
Description: as §1, §2
For processing of LiP-MS experiments (1), the samples are dried after stopping the reaction. After re-solubilization with urea, the partially-fragmented proteome is reduced and alkylated, diluted with ammonium bicarbonate, and treated with LysC and Trypsin to generate a fully fragmented peptide sample. This peptide sample is acidified with TFA and cleaned with a C18 resin before analysis by mass spectrometry.
Staurosporine is a natural compound that mimics the biological molecule ATP and acts as a promiscuous kinase inhibitor. Due to the similarities to ATP, Staurosporine has short residence times towards its protein Targets. To show the application of the LiP-MS technology for the measurement of short drug-residence times, the experimental workflow described in FIGS. 3, 4 and 5 was applied to the promiscuous kinase inhibitor Staurosporine. Native cellular proteomes were treated with Staurosporine or DMSO (vehicle) in duplicates, diluted 100 fold and analyzed by LiP-MS. The results of Example 1 are illustrated in FIG. 6. The graphs of FIG. 6 show the average abundances (y-axis) of four different peptides Peptide 1-Peptide 4 of the kinase MP2K3 measured between 0 and 60 minutes after jump-dilution (x-axis). The peptides Peptide 1-Peptide 4 are described in the database PeptideAtlas with the accessions PAp01457867, Pap00639637, PAp02016489 and PAp00503812. The graphs show a difference in peptide abundance between Staurosporine and DMSO, which is larger at earlier time points after dilution (between 0 and 30 min). The difference in abundance between Staurosporine-treated samples and DMSO decreases has time progresses.
Accordingly to equation 1, the residence-time of Staurosporine towards MP2K3 can be determined based on the half-life of the complex MP2K3-Staurosporine. Since the half-life of the complex MP2K3-Staurosporine corresponds to the interval of time that led to a reduction of peptide abundance by 50%, we fit the values of peptide abundance to a 4-parameter logistic curve. Thereby we obtained the time that corresponded to a decrease of relative peptide abundance by 50% (Table 2). Since each peptide generates a slightly different value for the half-life of the complex due experimental variability, we calculated the median of the 4 values obtained based on the four graphs of FIG. 6.

T2 sequence (P67775 whole entry): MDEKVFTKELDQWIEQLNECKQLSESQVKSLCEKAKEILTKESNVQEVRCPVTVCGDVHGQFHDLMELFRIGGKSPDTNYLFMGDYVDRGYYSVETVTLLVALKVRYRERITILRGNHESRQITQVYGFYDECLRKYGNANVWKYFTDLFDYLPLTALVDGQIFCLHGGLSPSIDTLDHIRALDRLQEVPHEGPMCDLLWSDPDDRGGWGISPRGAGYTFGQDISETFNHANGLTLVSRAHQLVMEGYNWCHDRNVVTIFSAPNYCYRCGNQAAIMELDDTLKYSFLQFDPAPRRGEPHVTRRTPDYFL

## COC[C@@H]([C@H](O)[C@H](O)C(=O)NCC[C@H](C)c1nc(/C=C/C[C@@H]2O[C@]3(C[C@@H](O)[C@@H]2C)O[C@H]([C@H](C[C@H](O)[C@H](C)[C@H](O)[C@H](C)/C=C(C)/C(C)=C/C=C/C(C)=C\C#N)OC)[C@H](OP(=O)(O)O)C3(C)C)co1)N(C)C [Calyculin A]
Kynureninase (KYNU)
  Binding / structural alteration of KYNU (Peptide 6 intensity vs DMSO): did not bind to KYNU
[1]
  Structural alteration of PPP2CA (Peptide 5 abundance vs DMSO) over time after jump-dilution: did not disappear over time

## C[C@@H](O)[C@@H](C)Oc1nc(Nc2ccc(S(=N)(=O)C3CC3)cc2)ncc1C(F)(F)F (stereo partly drawn) [Roniclib]
[2]
  IC50 values: nanomolar range

## CN[C@@H]1C[C@H]2O[C@@](C)([C@@H]1OC)n1c3ccccc3c3c4c(c5c6ccccc6n2c5c31)C(=O)NC4 [Staurosporine]
[3]; 0 to 60 minutes after 100-fold jump-dilution, FIG. 6
  Structural alteration of MP2K3 (peptide abundance vs DMSO) over time after jump-dilution: structural alteration disappeared over time
[3]; Peptide 1 of MP2K3
  Half-life: 25 min
[3]; Peptide 2 of MP2K3
  Half-life: 61 min
[3]; Peptide 3 of MP2K3
  Half-life: 129 min
[3]; Peptide 4 of MP2K3
  Half-life: 29 min
[3]; median of the 4 peptide half-lives
  Median half-life: 45 min
